Laboratory results reported in patent US12268690B2, “Treatments for mutations in acute myeloid leukemia” (OREGON HEALTH & SCIENCE UNIVERSITY, priority 2018, dated 2025).

System: freshly isolated mononuclear cells from AML samples
Assay: Ex vivo functional drug screen (MTS viability, AUC) on primary AML samples, compared by mutation or clinical group
Assay type: cell-based, human

Compound	drug sensitivity of mutant cases (TP53 mutant cases)	sensitivity to JAK kinase inhibitors, mutant versus wild type (average AUC difference, one-way ANOVA) (BCOR mutation alone or co-mutation of BCOR with DNMT3A or SRSF2)	sensitivity to JAK kinase inhibitors, mutant versus wild type (average AUC difference, one-way ANOVA) (co-mutation of BCOR with RUNX1)
CN(NC(=O)CC(=O)NN(C)C(=S)c1ccccc1)C(=S)c1ccccc1 [elesclemol]	trended more sensitive	–	–
JAK Inhibitor I	–	no difference in sensitivity	increased sensitivity
